From patent US10201532B2, “Compounds and their use” (ALLECRA THERAPEUTICS GMBH, priority 2010, dated 2019)

Assays:
[1] = test system: KPC-2 producing K. pneumoniae (ATCC BAA-1705); experiment: Synergistic broth micro-dilution MIC (checkerboard); assay type: cell-based, Klebsiella pneumoniae; details: for MIC of Cefepime in combination with BLI / MIC of Cefotaxime in combination with BLI / MIC of Ceftazidime in combination with BLI / MIC of Ceftobiprole in combination with BLI / MIC of Imipenem in combination with BLI / MIC of Meropenem in combination with BLI / MIC of Aztreonam in combination with BLI / MIC of Ertapenem in combination with BLI / MIC of Faropenem in combination with BLI: ATCC BAA-1705
[2] = test system: KPC-3 expressing E. coli (J53 R6206); experiment: as above; assay type: cell-based, Escherichia coli
[3] = target: crude KPC-3 enzyme extract (UniProt Q9F663, H272Y, species not given); experiment: β-Lactamase inhibitory assay with CENTA substrate; assay type: biochemical; details: also headed KPC2
Description: (§1) The Compound-1 was subjected to β-lactamase inhibitory assay to determine IC50 and to compare that with the comparator BLI agents as described elsewhere (Bebrone et. al., Antimicrob. Agents. Chemother, 2001, 45(6): 1868-1871; Jamieson et. al, Antimicrob. Agents. Chemother, 2003, 47(5): 1652-1657). Briefly, enzyme extracts from KPC-2 producing and KPC-3 expressing bacterial gram negative strains were used to study the β-lactamase inhibitory activity and determination of IC50 using CENTA as the substrate for β-lactamase.

[4] = target: T1, crude KPC-2 enzyme extract (Klebsiella pneumoniae, UniProt Q9F663); experiment: β-Lactamase inhibitory assay with CENTA substrate; assay type: biochemical
T1 construct: enzyme extracts from KPC-2 producing and KPC-3 expressing bacterial gram negative strains were used; endogenous in cells; host or cells: KPC-2 producing gram-negative strain
T1 sequence (Q9F663 25-293 limits assumed): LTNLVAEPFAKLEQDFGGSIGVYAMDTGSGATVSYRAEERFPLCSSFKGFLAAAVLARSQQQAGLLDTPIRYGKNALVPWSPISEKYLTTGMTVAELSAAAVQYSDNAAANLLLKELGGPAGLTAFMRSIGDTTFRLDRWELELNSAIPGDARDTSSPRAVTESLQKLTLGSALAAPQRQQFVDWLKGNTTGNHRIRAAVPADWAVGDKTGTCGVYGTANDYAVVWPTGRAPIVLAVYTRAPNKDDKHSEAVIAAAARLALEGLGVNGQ
Description: as §1

## CC1(C)[C@H](C(=O)O)N2C(=O)C[C@H]2S1(=O)=O [Sulbactam]
[1]; BLI at 2 μg/mL
  MIC of Cefepime in combination with BLI: >64 µg/mL
  MIC of Cefotaxime in combination with BLI: >64 µg/mL
  MIC of Ceftazidime in combination with BLI: >64 µg/mL
  MIC of Ceftobiprole in combination with BLI: >64 µg/mL
  MIC of Imipenem in combination with BLI: 16 to 32 µg/mL
  MIC of Meropenem in combination with BLI: 32 µg/mL
[1]; BLI at 4 μg/mL
  MIC of Aztreonam in combination with BLI: >64 µg/mL
  MIC of Cefepime in combination with BLI: ≥64 µg/mL
  MIC of Cefotaxime in combination with BLI: >64 µg/mL
  MIC of Ceftazidime in combination with BLI: >64 µg/mL
  MIC of Ceftobiprole in combination with BLI: >64 µg/mL
  MIC of Ertapenem in combination with BLI: >64 µg/mL
  MIC of Faropenem in combination with BLI: >64 µg/mL
  MIC of Imipenem in combination with BLI: 16 to 32 µg/mL
  MIC of Meropenem in combination with BLI: 32 µg/mL
[1]; BLI at 8 μg/mL
  MIC of Cefepime in combination with BLI: 64 µg/mL
  MIC of Cefotaxime in combination with BLI: 64 µg/mL
  MIC of Ceftazidime in combination with BLI: >64 µg/mL
  MIC of Ceftobiprole in combination with BLI: >64 µg/mL
  MIC of Ertapenem in combination with BLI: >64 µg/mL
  MIC of Faropenem in combination with BLI: >64 µg/mL
  MIC of Imipenem in combination with BLI: 16 µg/mL
  MIC of Meropenem in combination with BLI: 32 µg/mL
[1]; BLI at 16 μg/mL
  MIC of Aztreonam in combination with BLI: >64 µg/mL
  MIC of Cefepime in combination with BLI: 64 µg/mL
  MIC of Cefotaxime in combination with BLI: 32 µg/mL
  MIC of Ceftazidime in combination with BLI: >64 µg/mL
  MIC of Ceftobiprole in combination with BLI: >64 µg/mL
  MIC of Ertapenem in combination with BLI: >64 µg/mL
  MIC of Faropenem in combination with BLI: >64 µg/mL
  MIC of Imipenem in combination with BLI: 8 µg/mL
  MIC of Meropenem in combination with BLI: 32 µg/mL
[1]; BLI at 64 μg/mL
  MIC of Aztreonam in combination with BLI: >64 µg/mL
  MIC of Cefepime in combination with BLI: 64 µg/mL
  MIC of Cefotaxime in combination with BLI: 32 µg/mL
  MIC of Ceftazidime in combination with BLI: 64 µg/mL
  MIC of Ceftobiprole in combination with BLI: >64 µg/mL
  MIC of Ertapenem in combination with BLI: 64 µg/mL
  MIC of Faropenem in combination with BLI: >64 µg/mL
  MIC of Imipenem in combination with BLI: 8 µg/mL
  MIC of Meropenem in combination with BLI: 16 µg/mL
[1]; Klebsiella pneumoniae, ATCCBAA1705, read-out: MIC of BLI alone
  MIC: > 64 µg/mL
[2]; BLI at 2 μg/mL
  MIC of Cefepime in combination with BLI: 16 µg/mL
  MIC of Cefotaxime in combination with BLI: >32 µg/mL
  MIC of Ceftazidime in combination with BLI: 32 µg/mL
  MIC of Ceftobiprole in combination with BLI: 32 µg/mL
  MIC of Imipenem in combination with BLI: 4 µg/mL
  MIC of Meropenem in combination with BLI: 2 µg/mL
[2]; BLI at 4 μg/mL
  MIC of Cefepime in combination with BLI: 16 µg/mL
  MIC of Cefotaxime in combination with BLI: 16 µg/mL
  MIC of Ceftazidime in combination with BLI: 32 µg/mL
  MIC of Ceftobiprole in combination with BLI: 32 µg/mL
  MIC of Imipenem in combination with BLI: 2 µg/mL
  MIC of Meropenem in combination with BLI: 1 µg/mL
[2]; BLI at 8 μg/mL
  MIC of Cefepime in combination with BLI: 8 µg/mL
  MIC of Cefotaxime in combination with BLI: 8 µg/mL
  MIC of Ceftazidime in combination with BLI: 32 µg/mL
  MIC of Ceftobiprole in combination with BLI: 16 µg/mL
  MIC of Imipenem in combination with BLI: 2 µg/mL
  MIC of Meropenem in combination with BLI: 1 µg/mL
[2]; Escherichia coli, read-out: MIC of BLI alone, BLI alone
  MIC: > 8 µg/mL
[3]
  IC50: 235 µM
[4]
  IC50: 1400 µM
